According to article PMC7834599 (Bioorganic & Medicinal Chemistry Letters, 2020):

Experiments:
TNF-α = TNF-α release in LPS-ATP treated THP-1 cells; type: cell-based, Human
AIM2 inflammasome = molecular target: T1, AIM2 inflammasome (Homo sapiens, UniProt O14862); assay: Poly; type: cell-based; conditions: THP-1 cells, Poly (dA:dT)
T1 sequence (O14862 1-343): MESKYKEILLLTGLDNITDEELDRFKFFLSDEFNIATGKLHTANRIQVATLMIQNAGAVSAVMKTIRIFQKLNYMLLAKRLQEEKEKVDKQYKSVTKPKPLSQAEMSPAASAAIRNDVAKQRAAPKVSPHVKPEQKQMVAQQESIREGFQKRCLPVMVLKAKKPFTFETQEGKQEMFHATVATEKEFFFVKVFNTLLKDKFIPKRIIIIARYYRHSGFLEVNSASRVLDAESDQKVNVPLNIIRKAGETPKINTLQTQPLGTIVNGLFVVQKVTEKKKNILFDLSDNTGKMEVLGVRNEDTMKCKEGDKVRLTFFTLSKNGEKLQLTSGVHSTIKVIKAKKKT

ASC = ASC oligomerization assay in THP-1 cells; type: cell-based, Human; conditions: LPS-ATP NLRP3 activated THP-1 cells, western blot
CYP2C8 = molecular target: T2, CYP2C8 (Homo sapiens, UniProt P10632); assay: CYP inhibition in human liver microsomes; type: in vitro ADME
T2 sequence (P10632 1-490): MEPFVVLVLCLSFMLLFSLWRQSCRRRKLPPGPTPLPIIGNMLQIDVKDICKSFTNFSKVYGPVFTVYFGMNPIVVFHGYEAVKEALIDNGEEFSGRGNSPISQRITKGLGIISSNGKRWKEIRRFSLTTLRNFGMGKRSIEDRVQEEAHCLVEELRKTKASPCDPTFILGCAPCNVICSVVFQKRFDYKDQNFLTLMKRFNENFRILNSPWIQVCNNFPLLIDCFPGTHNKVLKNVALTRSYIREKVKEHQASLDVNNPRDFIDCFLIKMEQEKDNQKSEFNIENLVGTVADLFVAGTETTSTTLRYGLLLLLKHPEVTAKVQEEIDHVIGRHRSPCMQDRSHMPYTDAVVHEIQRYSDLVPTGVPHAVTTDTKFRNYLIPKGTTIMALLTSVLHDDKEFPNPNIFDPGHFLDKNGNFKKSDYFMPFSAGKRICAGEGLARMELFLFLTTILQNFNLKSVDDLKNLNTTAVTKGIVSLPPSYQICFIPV

CYP2C9 = CYP2C9 (Homo sapiens, UniProt P11712); assay: CYP inhibition in human liver microsomes; type: in vitro ADME
NLRP3 inflammasome = NLRP3 inflammasome (Homo sapiens, UniProt Q96P20); assay: IL-1β release assay, NLRP3 inflammasome activation in THP-1 cells; type: cell-based
NLRP3 inflammasome, sequence (Q96P20 whole entry): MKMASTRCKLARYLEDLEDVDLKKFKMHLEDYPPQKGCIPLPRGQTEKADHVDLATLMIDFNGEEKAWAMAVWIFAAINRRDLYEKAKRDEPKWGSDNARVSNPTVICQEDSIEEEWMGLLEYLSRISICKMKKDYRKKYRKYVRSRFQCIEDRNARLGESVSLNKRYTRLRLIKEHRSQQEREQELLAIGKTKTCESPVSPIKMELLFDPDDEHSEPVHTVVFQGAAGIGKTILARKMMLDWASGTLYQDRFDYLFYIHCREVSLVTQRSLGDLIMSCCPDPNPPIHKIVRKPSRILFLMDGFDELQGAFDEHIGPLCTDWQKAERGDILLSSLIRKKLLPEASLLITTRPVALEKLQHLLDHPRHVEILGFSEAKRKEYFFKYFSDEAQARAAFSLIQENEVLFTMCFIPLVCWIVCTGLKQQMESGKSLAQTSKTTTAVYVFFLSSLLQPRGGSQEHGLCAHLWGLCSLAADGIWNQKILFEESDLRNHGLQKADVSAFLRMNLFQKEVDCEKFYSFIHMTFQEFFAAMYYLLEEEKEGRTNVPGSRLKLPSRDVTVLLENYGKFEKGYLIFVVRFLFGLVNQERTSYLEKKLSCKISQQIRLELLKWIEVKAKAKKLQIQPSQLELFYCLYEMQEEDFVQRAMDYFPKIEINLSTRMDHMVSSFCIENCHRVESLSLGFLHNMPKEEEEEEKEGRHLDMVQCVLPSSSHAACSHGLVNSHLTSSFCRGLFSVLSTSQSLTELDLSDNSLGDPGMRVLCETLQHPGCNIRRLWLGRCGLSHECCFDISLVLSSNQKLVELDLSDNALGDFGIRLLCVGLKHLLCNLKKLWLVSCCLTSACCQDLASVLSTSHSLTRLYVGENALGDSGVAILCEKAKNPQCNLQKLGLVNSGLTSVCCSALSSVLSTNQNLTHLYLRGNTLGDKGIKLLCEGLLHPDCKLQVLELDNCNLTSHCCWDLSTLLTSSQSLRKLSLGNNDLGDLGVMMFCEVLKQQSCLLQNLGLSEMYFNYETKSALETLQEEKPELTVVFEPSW

CYP2C9, sequence (P11712 whole entry): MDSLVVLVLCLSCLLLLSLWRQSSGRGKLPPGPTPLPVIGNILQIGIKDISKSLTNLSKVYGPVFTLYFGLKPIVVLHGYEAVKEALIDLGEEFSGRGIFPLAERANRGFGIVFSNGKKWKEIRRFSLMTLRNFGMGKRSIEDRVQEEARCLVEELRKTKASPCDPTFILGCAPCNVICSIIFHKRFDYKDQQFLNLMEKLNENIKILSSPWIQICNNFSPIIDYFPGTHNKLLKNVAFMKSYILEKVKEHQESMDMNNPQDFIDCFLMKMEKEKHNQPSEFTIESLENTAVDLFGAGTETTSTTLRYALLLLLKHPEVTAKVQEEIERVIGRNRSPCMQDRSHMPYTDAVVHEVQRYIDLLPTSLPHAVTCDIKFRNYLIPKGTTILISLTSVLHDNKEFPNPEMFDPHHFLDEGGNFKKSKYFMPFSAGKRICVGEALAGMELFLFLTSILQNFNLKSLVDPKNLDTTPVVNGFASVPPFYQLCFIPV

## O=C(Nc1c2c(cc3c1CCC3)CCC2)NS(=O)(=O)/C=C/c1nccs1 [Compound 7, (E)-N-((1,2,3,5,6,7-hexahydro-s-indacen-4-yl)carbamoyl)-2-(thiazol-2-yl)ethene-1-sulfonamide]
TNF-α; Homo sapiens, THP-1, read-out: TNF-α IC50
  IC50: > 10 µM
TNF-α; THP-1 cells, LPS-ATP, up to high concentration
  inhibition of secreted TNF-α (in words): not affected
AIM2 inflammasome
  inhibition of secreted IL-1β in AIM2 inflammasome activation (in words): no effect
ASC
  ASC oligomerization (in words): blocked the oligomerisation of ASC
CYP2C8
  CYP2C8 inhibition (in words): inhibit
CYP2C9
  CYP2C9 inhibition (in words): inhibit

## O=C(NS(=O)(=O)/C=C/c1nccs1)c1c2c(cc3c1OCC3)OCC2 [Compound 20]
NLRP3 inflammasome
  IC50: > 1 µM
NLRP3 inflammasome; THP-1, read-out: inhibition of secreted IL-1β
  inhibition at 1 µM: < 50%
